Source: US11827677B2, “Antimicrobial peptide ID13, preparation method and use thereof” (Feed Research Institute, Chinese Academy of Agricultural …, priority 2019, dated 2023)
Values joined by “and” are separate entries in the source; they are usually repeats but may differ in a detail not shown here. Equal entries are not always repeated. Where two headings read alike, the source gives them in different places. Bridge positions count the residues as written; N and C are the ends. Peptide text beside a SMILES is read from it.

Columns and labels:
[1] = test system: RAW264.7 cells; assay: Cytotoxicity assay (MTT); format: cell-based; details: 256 μg/mL, 24 hours incubation
Description: The RAW264.7 cells were cultured in DMEM complete medium with 37° C., 5% CO2 and saturated humidity conditions. The cells were pipetted and re-suspended in DMEM complete medium. Then, the cells were seeded in a 96-well plate at a density of 2.5×10^5 cells/mL, 100 μL per well, and 3 replicates were set. After 24 h, the medium was removed, and 100 μL of 1, 2, 4, 8, 16, 32, 64, 128, and 256 μg/mL ID13 were added to each well according to a concentration gradient. Control wells were added with the same amount of PBS solution. After 24 hours incubation, the medium was removed; the wells were washed twice with PBS, and 100 μL of MTT at a concentration of 5 mg/mL was added to each well (which were operated in dark). The 96-well plate was moved to an incubator and continued to be incubated for 4 h. After discarding the MTT solution, 150 μL DMSO was added into each well, and then the plate was cultured with shaking for 10 minutes. When crystals at the well bottom were completely dissolved, the absorbance values were measured at a wavelength of 570 nm. The cell survival rate was calculated according to the following formula: survival rate (%)=OD value of the treatment group/OD value of the control group×100% (Jiao et al., 2015).

[2] = test system: mice red blood cells; assay: Hemolysis assay; format: cell-based, ICR mice; details: concentration of 1-256 μg/mL; 37° C., 1 h
Description: The freeze-dried powder of antimicrobial peptide ID13 obtained in Example 6 was used for the test. The antimicrobial peptide ID13 was dissolved in sterile physiological saline to prepare a stock solution of a concentration of 512 μg/mL, and diluted with a 2-fold ratio to a final concentration of 2 μg/mL. The blood from the eyeballs of 6-week-old SPF female ICR mice was taken and collected with a heparin sodium anticoagulation tube. The collected blood was centrifuged at 4° C., 1500 rpm for 10 min. The red blood cells were washed three times with 10 mM PBS (pH 7.3) until the supernatant was colorless and transparent, and an 8% red blood cell suspension was prepared. 100 μL of the red blood cell suspension and antimicrobial peptide ID13 solution were added to 96-well plate, incubated at 37° C. for 1 h, and centrifuged at 1500 rpm for 5 min. The resulted supernatant was transferred to ELISA plate to detect the UV absorbance at 540 nm. Values of 0% and 100% hemolysis control tests were set up with physiological saline and 0.1% TRITON X-100 detergent, respectively. The formula for calculating the degree of hemolysis was as follows (Jung, Park, etc., 2007): Hemolysis (%)=[(Abs540 nm antimicrobial peptide ID13—Abs540 nm physiological saline)/(Abs540 nm 0.1% TRITON X-100 detergent—Abs540 nm physiological saline)]×100%.

[3] = test system: Gram-positive bacteria; assay: Antimicrobial activity (MIC) summary over tested strains; format: cell-based; details: range over the tested Gram-positive strains
Description: (§1) The minimum inhibition concentration (MIC) of ID13 against pathogens was measured using a trace broth dilution method. The freeze-dried powder of antimicrobial peptide ID13 obtained in Example 6 was used to prepare a solution of antimicrobial peptide ID13 with a concentration of 1280 μg/mL and a solution of vancomycin, respectively with sterile normal saline, and diluted with a two-fold ratio to a final concentration of 1.25 μg/mL. The antimicrobial peptide ID13 solutions and vancomycin solutions of different concentrations were added to a sterile 96-well cell culture plate, with 10 μL per well, three parallels for each sample, and the same amount (10 μL) of sterile saline was used as a negative control, to prepare MIC plates. Strains were cultured in MH liquid medium with shaking at 37° C. until its OD600 nm=0.4 and diluted to 1×10^5 CFU/ml. 90 μL of cell suspension was added into each well of the prepared sample well of the MIC plate and incubated at 37° C. for 16-18 h.

[4] = test system: Streptococcus suis CVCC 3928; assay: MIC by trace broth dilution method; format: cell-based; details: 16-18 h
Description: as §1

[5] = test system: Staphylococcus aureus ATCC 43300; assay: MIC by trace broth dilution method; format: cell-based; details: 16-18 h
Description: as §1

[6] = test system: Staphylococcus aureus CVCC 546; assay: MIC by trace broth dilution method; format: cell-based; details: 16-18 h
Description: as §1

[7] = test system: Streptococcus pneumoniae CVCC 2350; assay: MIC by trace broth dilution method; format: cell-based
Description: as §1

[8] = test system: Staphylococcus Epidermidis ATCC 12228; assay: MIC by trace broth dilution method; format: cell-based
Description: as §1

[9] = test system: MRSA ATCC 43300; details: cited from earlier work

CC[C@H](C)[C@@H]1NC(=O)[C@@H]2CSSC[C@@H](C(=O)N[C@@H](CCCNC(=N)N)C(=O)N[C@@H](CCCCN)C(=O)O)NC(=O)[C@H](CC(N)=O)NC(=O)[C@@H]3CSSC[C@H](NC(=O)[C@H](C)NC(=O)[C@H](C)NC(=O)[C@H](Cc4c[nH]cn4)NC(=O)CNC(=O)[C@H](C(C)C)NC(=O)[C@H](CCCCN)NC(=O)[C@H](Cc4ccccc4)NC(=O)[C@@H]4CCCN4C(=O)[C@H](CO)NC(=O)[C@H](CC(C)C)NC(=O)[C@H](CC(C)C)NC(=O)[C@H](CC(=O)O)NC(=O)[C@@H](NC(=O)[C@@H](NC(=O)[C@H](C)N)[C@@H](C)O)CSSC[C@H](NC(=O)[C@H](Cc4c[nH]c5ccccc45)NC(=O)CNC(=O)CNC(=O)[C@H](CCCNC(=N)N)NC(=O)[C@H](CCCCN)NC(=O)CNC(=O)[C@H](CCCNC(=N)N)NC(=O)[C@H](C)NC1=O)C(=O)N[C@@H](CC(=O)O)C(=O)NCC(=O)N[C@@H](CCCNC(=N)N)C(=O)N[C@@H](C)C(=O)N[C@@H](C(C)C)C(=O)N3)C(=O)N[C@@H](C)C(=O)N[C@@H](C)C(=O)N[C@@H](Cc1c[nH]cn1)C(=O)N2 [ID13] (H-ATCDLLSPFKVGHAACAAHCIARGKRGGWCDGRAVCNCRK-OH; disulfide 3-30, 16-36, 20-38 (inferred); N-terminus and C-terminus assumed)
cell survival rate [1]: 72%
hemolysis to mice red blood cells [2]: little hemolysis
antimicrobial activity against Gram-positive bacteria (MIC range) [3]: 0.95 to 1.91 µM
MIC ([4]; 37° C.): 4 µg/mL
MIC ([4]; 37° C., read-out: MIC): 0.95 µM
MIC ([5]; 37° C.): 4 µg/mL
MIC ([5]; 37° C., read-out: MIC): 0.95 µM
MIC ([6]; 37° C.): 4 µg/mL
MIC ([6]; 37° C., read-out: MIC): 0.95 µM
MIC ([7]; Streptococcus pneumoniae CVCC 2350, 37° C., 16-18 h): 0.95 μM and 4 μg/mL
MIC ([8]; Staphylococcus Epidermidis ATCC 12228, 37° C., 16-18 h): 1.91 μM and 8 μg/mL

CN[C@H](CC(C)C)C(=O)N[C@H]1C(=O)N[C@@H](CC(N)=O)C(=O)N[C@H]2C(=O)N[C@H]3C(=O)N[C@H](C(=O)N[C@H](C(=O)O)c4cc(O)cc(O)c4-c4cc3ccc4O)[C@H](O)c3ccc(c(Cl)c3)Oc3cc2cc(c3O[C@@H]2O[C@H](CO)[C@@H](O)[C@H](O)[C@H]2O[C@H]2C[C@](C)(N)[C@H](O)[C@H](C)O2)Oc2ccc(cc2Cl)[C@H]1O [Vancomycin]
MIC ([4]; CVCC3928, 37° C., read-out: MIC): 0.17 µM and 0.25 µg/mL
MIC ([5]; ATCC43300, 37° C., read-out: MIC): 0.67 µM and 1 µg/mL
MIC ([6]; CVCC546, 37° C., read-out: MIC): 0.67 µM and 1 µg/mL
MIC ([7]; Streptococcus pneumoniae, CVCC2350): 0.34 µM and 0.5 µg/mL
MIC ([8]; Staphylococcus epidermidis, ATCC12228): 0.67 µM and 1 µg/mL

CC[C@H](C)[C@@H]1NC(=O)[C@@H]2CSSC[C@@H](C(=O)N[C@@H](CCCNC(=N)N)C(=O)N[C@@H](CCCCN)C(=O)O)NC(=O)[C@H](CC(N)=O)NC(=O)[C@@H]3CSSC[C@H](NC(=O)[C@H](C)NC(=O)[C@H](C)NC(=O)[C@H](Cc4c[nH]cn4)NC(=O)CNC(=O)[C@H](C(C)C)NC(=O)[C@H](CCCCN)NC(=O)[C@H](Cc4ccccc4)NC(=O)[C@@H]4CCCN4C(=O)[C@H](CO)NC(=O)[C@H](CC(C)C)NC(=O)[C@H](CC(C)C)NC(=O)[C@H](CC(=O)O)NC(=O)[C@@H](NC(=O)[C@@H](NC(=O)[C@H](C)N)[C@@H](C)O)CSSC[C@H](NC(=O)[C@H](Cc4c[nH]c5ccccc45)NC(=O)CNC(=O)CNC(=O)[C@H](CCCNC(=N)N)NC(=O)[C@H](CCCCN)NC(=O)CNC(=O)[C@H](CCCNC(=N)N)NC(=O)[C@H](C)NC1=O)C(=O)N[C@@H](CC(=O)O)C(=O)N[C@@H](CCCCN)C(=O)N[C@@H](CCCNC(=N)N)C(=O)N[C@@H](C)C(=O)N[C@@H](C(C)C)C(=O)N3)C(=O)N[C@@H](C)C(=O)N[C@@H](C)C(=O)N[C@@H](Cc1c[nH]cn1)C(=O)N2 [DLP4] (H-ATCDLLSPFKVGHAACAAHCIARGKRGGWCDKRAVCNCRK-OH; disulfide 3-30, 16-36, 20-38; N-terminus and C-terminus assumed)
MIC ([4]; 37° C.): 16 µg/mL
MIC ([5]; 37° C.): 16 µg/mL
MIC ([6]; 37° C.): 16 µg/mL
drug tolerance such as increased MIC ([9]; MRSA ATCC 43300 continuously passaged for 30 days under the effective dose): no drug tolerance

CO/N=C(\C(=O)N[C@@H]1C(=O)N2C(C(=O)O)=C(CSc3nc(=O)c(=O)[nH]n3C)CS[C@H]12)c1csc(N)n1 [ceftriaxone]
increase of MIC value ([9]; MRSA ATCC 43300 continuously passaged for 30 days): 256 times
